The text below walks through data of patent EP0449699A2, “Pyrazole derivatives as angiotensin II-receptor antagonists, process for their preparation and pharmaceutical compositions containing them” (LABORATOIRES UPSA, priority 1990, dated 1991).

The assay concerns récepteurs surrénaliens de l'angiotensine II. Description: Displacement of radioligand [125I]-SIAII specifically bound to adrenal angiotensin II receptors (rat adrenal homogenate). Format: binding. The conditions noted are these: 60 min, 25°C. An excerpt: L'affinité des produits des exemples pour les récepteurs de l'angiotensine II est évaluée par technique de déplacement d'un radioligand spécifiquement fixé sur les récepteurs surrénaliens de l'angiotensine Il, chez le rat.
Une aliquote d'un homogénat de surrénales de rat incube en présence d'une concentration unique de [^125I]-SIAII (Sar^1, Tyr^4, Ile^8 - angiotensine II), antagoniste des récepteurs de l'angiotensine II, et de deux concentrations d'agents compétiteurs (10^-5 M, 10-^7 M) durant 60 min à 25°C.
La réaction est achevée par ajout de tampon, puis rapide filtration à travers des filtres de papier de verre. La liaison non spécifique est déterminée en présence d'angiotensine Il.
Les résultats sont exprimés, pour les concentrations testées, en pourcentage de déplacement du radioligand spécifiquement fixé sur les récepteurs surrénaliens de l'angiotensine Il.

For `CCCc1nn(C)c(COC)c1Cc1ccc(-c2ccccc2-c2nnn[nH]2)cc1` [Exemple 117, Méthyl-1 n-propyl-3 [(tétrazolyl-5)-2'biphényl-yl-4] méthyl-4 méthoxy méthyl-5 pyrazole], the “% de déplacement du ligand marqué” value (competitor 1E-5 M, 10 µM) was 61% and the “% de déplacement du ligand marqué” value (competitor 1E-7 M, 0.1 µM) stood at 35%.

As to `CCCCc1nn(C)c(COC)c1Cc1ccc(-c2ccccc2-c2nnn[nH]2)cc1` [Exemple 118, Méthyl-1 n-Butyl-3 [(tétrazolyl-5)2' biphényl-yl-4] méthyl-4 méthoxy méthyl-5 pyrazole], the “% de déplacement du ligand marqué” value was determined as 67% (competitor 1E-5 M, 10 µM) and 35% (competitor 1E-7 M, 0.1 µM).

Take `CCCCc1nn(CC(F)(F)F)c(COC)c1Cc1ccc(-c2ccccc2-c2nnn[nH]2)cc1` [Exemple 119, (Trifluoro-2,2,2 éthyl)-1 n-butyl-3 [(tétrazolyl-5)-2' biphényl-yl-4] méthyl-4 méthoxy méthyl-5 pyrazole]: the “% de déplacement du ligand marqué” value by setting is: (competitor 1E-5 M, 10 µM) 70%; (competitor 1E-7 M, 0.1 µM) 54%.

For the compound `CCCCc1nn(C)c(OCC(=O)N2CCOCC2)c1Cc1ccc(NC(=O)c2ccccc2NS(=O)(=O)C(F)(F)F)cc1` [Exemple 130, N-[[Méthyl-1 n-Butyl-3 [(trifluoro méthyl sulfonyl amino-2 benzoyl)amino-4 benryl]-4 pyrazol-yl-5]oxyacétyl] morpholine], the “% de déplacement du ligand marqué” value by setting is: (competitor 1E-5 M, 10 µM) 74%; (competitor 1E-7 M, 0.1 µM) 33%.

`CCCc1nn(C)c(OCC(=O)OC)c1Cc1ccc(-c2ccccc2NS(=O)(=O)C(F)(F)F)cc1` [Exemple 135, [Méthyl-1 n-Propyl-3 (trifluoro méthyl sulfonyl amlmo-2'blphényl-yl-4)méthyl-4 pyrazol-yl-5] oxy acétatede méthyle]: the “% de déplacement du ligand marqué” value runs as follows: (competitor 1E-5 M, 10 µM) 65%; (competitor 1E-7 M, 0.1 µM) 34%.

As to `CCCc1nn(C)c(OCCO)c1Cc1ccc(-c2ccccc2C(=O)O)cc1` [Exemple 137, [Méthyl-1 n-Propyl-3 (carboxy-2'blphényl-yl-4)méthyl-4 pyrazol-yl-5]oxy-2 éthanol], the “% de déplacement du ligand marqué” value worked out at 63% (competitor 1E-5 M, 10 µM) and 5% (competitor 1E-7 M, 0.1 µM).

Take `CCCc1nn(C)c(OCC(=O)OCC)c1Cc1ccc(-c2ccsc2-c2nnn[nH]2)cc1` [Exemple 141, [Méthyl-1 n-propyl-3 [[(tétrazolyl-5)-2 thiényl-3]-4 benzyl]-4 pyrazol-yl-5] oxy acétate d'éthyle]: the “% de déplacement du ligand marqué” value by setting is: (competitor 1E-5 M, 10 µM) 64%; (competitor 1E-7 M, 0.1 µM) 9%.

As to `CCCc1nn(C)c(OCCO)c1Cc1ccc(-c2ccsc2C(=O)O)cc1` [Exemple 145, [Méthyl-1 n-Propyl-3 [(carboxy-2 thiényl-3)-4 benzyl]-4 pyrazol-yl-5] oxy-2 éthanol], the “% de déplacement du ligand marqué” value (competitor 1E-5 M, 10 µM) came out at 53% and the “% de déplacement du ligand marqué” value (competitor 1E-7 M, 0.1 µM) was determined as 0%.
